Among the test systems are MDA-N; MDA-MB-435; ACHN; 786-0; BT-549; HOP-18; DMS-114; RXF 631; LXFL 529.
Holding throughout (assay): growth of human tumour cells (NCI), 48 h

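Compound exposure: 48 hours, 5 concentrations, 96-well plates. Abbreviation: GI50, concentration required for 50% inhibition of growth.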 Active and inactive are the calls of the source. No stated cut-off is given here; in the data, active = GI50 up to about 1.1 µM and inactive = higher.

Take `CSCCC(NOC(=O)Cc1ccccc1)P(=O)(O)c1ccccc1` (stereo not drawn): the GI50 with MDA-N, with MDA-MB-435 and in the assay with ACHN was > 100 µM (inactive) in each case.

On to `COc1ccc2c(c1)c1c(n2CCN2CCCCC2)-c2cccc(OC)c2CC1`, for which the GI50 in the assay on MDA-N is 16.2 µM (inactive); in the assay on MDA-MB-435, 14.7 µM (inactive); with 786-0, 20.2 µM (inactive); in the assay with BT-549 it was 13.9 µM (inactive); with ACHN, 17.5 µM (inactive).

Turning to `Nc1ncnc2c1nnn2C1OC(CO)C(O)C1O` (stereo not drawn), the figures for the GI50 in the assay with HOP-18 and in the assay with DMS-114 were 2.69 µM (inactive) and 3.64 µM (inactive), respectively.

Regarding `CC(=O)NC(CCCCNC(=O)OC(C)(C)C)C(=O)O` (stereo not drawn), the GI50 in the assay on MDA-N, with MDA-MB-435 and in the assay on ACHN was > 100 µM (inactive) each time.

As to `CN(C)C(=O)/N=C1\SC(=N\c2ccccc2)/C(=N/c2ccccc2)N1c1ccc([N+](=O)[O-])cc1`, the GI50 with MDA-N, in the assay on MDA-MB-435 and in the assay on BT-549 was > 100 µM (inactive) in each case.

For `CC(C)[C@](O)(C(=O)OCC1CC[N+]2([O-])CC[C@@H](O)C12)[C@H](C)O` (stereo partly drawn), the GI50 in the assay with HOP-18 is 105 µM (inactive); in the assay with DMS-114, > 375 µM (inactive).

As for `CCOC(=O)CN1CCS/C1=N/C#N`, the GI50 in the assay with HOP-18 and in the assay on DMS-114 was > 100 µM (inactive) in each case.

Take `CC(=O)Nc1ccc2oc(=O)c3ccccc3c2c1`: the GI50 with MDA-N, in the assay with MDA-MB-435, in the assay on 786-0, in the assay with BT-549 and in the assay with ACHN was > 100 µM (inactive) in each case.

On to `CCNC(=O)C(C)C1CCC2(C)C=CC(=O)C(C)=C2C1O` (stereo not drawn), for which the GI50 in the assay on HOP-18 and in the assay on DMS-114 was > 100 µM (inactive) in each case.

As to `CC(C)(C)[Si](C)(C)OCCCC#CCO`, the GI50 is < 0.01 µM (active) with HOP-18; > 100 µM (inactive) with DMS-114; > 100 µM (inactive) in the assay with RXF 631; > 100 µM (inactive) in the assay with ACHN; > 100 µM (inactive) in the assay on LXFL 529.

On to `Cc1cn(C2CC(O)C(Cn3cc(Cn4nc(Br)c(=O)[nH]c4=O)nn3)O2)c(=O)[nH]c1=O` (stereo not drawn), for which the GI50 in the assay on MDA-N, in the assay with MDA-MB-435, in the assay with BT-549 and with ACHN was > 100 µM (inactive) each time.

`COC1CCC(CO)OO1` (stereo not drawn): the GI50 in the assay on DMS-114 was 15.3 µM (inactive); in the assay on ACHN, 38.2 µM (inactive); in the assay with LXFL 529, 8.71 µM (inactive).

In the case of `O=C1OC2CC=CC1C2` (stereo not drawn), the GI50 in the assay on HOP-18 and in the assay on DMS-114 was > 100 µM (inactive) in each case.

Turning to `Clc1ccc(C2SCc3nc4ccccc4n32)cc1` (stereo not drawn), the GI50 with HOP-18 was 23.3 µM (inactive); in the assay with DMS-114, 5.57 µM (inactive); in the assay on RXF 631 it was 29.2 µM (inactive); with ACHN, 30.1 µM (inactive); with LXFL 529, 18.7 µM (inactive).

For `CC1=CC(O)C(O)C2(C)C1CC1OC(=O)C(O)C3C(C)C(O)C4(O)OCC13C42` (stereo not drawn), the results for the GI50 in the assay on HOP-18 and in the assay with DMS-114 were 155 µM (inactive) and 35.4 µM (inactive), respectively.

In the case of `COc1ccc(NC(=S)NNC(=O)c2nsc3ccccc23)cc1`, the results for the GI50 in the assay on DMS-114, in the assay with ACHN and with LXFL 529 were 32.1 µM (inactive), 43.9 µM (inactive) and 39.4 µM (inactive), respectively.

In the case of `CSC1=C(SC)C(=O)c2cn(C)c(=O)cc2C1=O`, the GI50 in the assay on MDA-N is 1.64 µM (inactive); in the assay on MDA-MB-435, 1.79 µM (inactive); with BT-549, 2.14 µM (inactive); with ACHN, 1.81 µM (inactive).

In the case of `C[N+](C)(CCO)CCN1c2ccccc2Sc2ccccc21`, the GI50 in the assay on MDA-N, in the assay on MDA-MB-435 and in the assay on ACHN was > 10 µM (inactive) throughout.
